Results taken from US20250340538A1, “IMIDAZOLONE DERIVATIVES AS INHIBITORS OF PROTEIN KINASES IN PARTICULAR DYRK1A, CLK1 AND/OR CLK4” (PERHA PHARMACEUTICALS, priority 2021, published 2025).
Where two headings read alike, the source gives them in different places.

How the values were obtained:
Assay type in all cases: biochemical
[1] = molecular target: T1, CLK3 (Homo sapiens, UniProt P49761); assay: Radiometric protein kinase assay (33PanQinase Activity Assay), CLK3; settings: read-out: IC50 on CLK3 (most potent CLK3 inhibitors)
T1 construct: GST-fusion or His-tag (not specified per kinase); purchased ProQinase GmbH; host or cells: Sf9 insect cells or E. coli (not specified per kinase)
T1 sequence (P49761 whole entry, the tested form may be a part): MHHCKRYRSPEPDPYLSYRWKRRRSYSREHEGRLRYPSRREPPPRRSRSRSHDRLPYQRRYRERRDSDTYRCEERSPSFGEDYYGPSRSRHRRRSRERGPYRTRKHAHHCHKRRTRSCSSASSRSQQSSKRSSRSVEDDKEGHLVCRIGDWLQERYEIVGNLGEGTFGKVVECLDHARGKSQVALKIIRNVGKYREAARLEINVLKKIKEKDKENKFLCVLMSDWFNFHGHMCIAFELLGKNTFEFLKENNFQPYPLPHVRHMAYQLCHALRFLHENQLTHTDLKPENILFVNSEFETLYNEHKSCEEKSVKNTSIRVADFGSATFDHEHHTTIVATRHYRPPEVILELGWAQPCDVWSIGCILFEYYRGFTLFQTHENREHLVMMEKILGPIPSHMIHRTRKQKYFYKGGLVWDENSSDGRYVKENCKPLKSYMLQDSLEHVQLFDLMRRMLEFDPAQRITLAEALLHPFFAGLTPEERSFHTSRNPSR
Procedure: (§1) Assays were performed by ProQinase GmbH (Engesserstr. 4, D-79108 Freiburg, Germany. www.proqinase.com). The IC50 profile of all compounds was determined using 12 protein kinases (CDK2/cyclin E, CK1ε, CLK1, 2, 3, 4, DYRK1A, 1B, 2, 3, 4, GSK3β).
(§2) The compounds were provided as […] in 100% DMSO. Prior to testing, the 1 μM stock solutions were subjected to a serial, semi-logarithmic dilution using 100% DMSO as a solvent. […] In the process, 90 μl H2O were added to each well of each compound dilution plate. To minimize potential precipitation, the H2O was added to each plate only a few minutes before the transfer of the compound solutions into the assay plates. The plate was shaken thoroughly, resulting in a compound dilution plate/10% DMSO.
(§3) For the assays (see below), 5 μL solution from each well of the compound dilution plates/10% DMSO were transferred into the assay plates. The final volume of the assay was 50 μL. All compounds were tested at 10 final assay concentrations in the range from 10 μM to 30 nM. The final DMSO concentration in the reaction cocktails was 1% in all cases.
(§4) All protein kinases provided by ProQinase were expressed in Sf9 insect cells or in E. coli as recombinant GST-fusion proteins or His-tagged proteins, either as full-length or enzymatically active fragments. All kinases were produced from human cDNAs and purified by either GSH-affinity chromatography or immobilized metal. Affinity tags were removed from a number of kinases during purification. The purity of the protein kinases was examined by SDS-PAGE/Coomassie staining, the identity was checked by mass spectroscopy.
(§5) A radiometric protein kinase assay (33PanQinase® Activity Assay) was used for measuring the kinase activity of the 12 protein kinases. All kinase assays were performed in 96-well FlashPlates™ from PerkinElmer (Boston, MA, USA) in a 50 μL reaction volume. The reaction cocktail was pipetted in four steps in the following order: • 25 μL of assay buffer (standard buffer/[γ-^33P]-ATP), • 10 μL of ATP solution (in H2O), • 5 μL of test compound (in 10% DMSO), • 10 μL of enzyme/substrate mixture.
(§6) The reaction cocktails were incubated at 30° C. for 60 minutes. The reaction was stopped with 50 μL of 2% (v/v) H3PO4, plates were aspirated and washed two times with 200 μL 0.9% (w/v) NaCl. Incorporation of ^33Pi was determined with a microplate scintillation counter (Microbeta, Wallac). The IC50 values for all compounds were calculated from the dose response curves
(§7) As a parameter for assay quality, the Z′-factor (Zhang et al., J. Biomol. Screen. 2: 67-73, 1999) for the low and high controls of each assay plate (n=8) was used. ProQinase's criterion for repetition of an assay plate is a Z′-factor below 0.4 (Iversen et al., J. Biomol. Screen. 3: 247-252, 2006).

[2] = molecular target: T2, CLK1 (Homo sapiens, UniProt P49759); assay: Radiometric protein kinase assay (33PanQinase Activity Assay), CLK1
T2 construct: GST-fusion or His-tag (not specified per kinase); purchased ProQinase GmbH; host or cells: Sf9 insect cells or E. coli (not specified per kinase)
T2 sequence (P49759 whole entry, the tested form may be a part): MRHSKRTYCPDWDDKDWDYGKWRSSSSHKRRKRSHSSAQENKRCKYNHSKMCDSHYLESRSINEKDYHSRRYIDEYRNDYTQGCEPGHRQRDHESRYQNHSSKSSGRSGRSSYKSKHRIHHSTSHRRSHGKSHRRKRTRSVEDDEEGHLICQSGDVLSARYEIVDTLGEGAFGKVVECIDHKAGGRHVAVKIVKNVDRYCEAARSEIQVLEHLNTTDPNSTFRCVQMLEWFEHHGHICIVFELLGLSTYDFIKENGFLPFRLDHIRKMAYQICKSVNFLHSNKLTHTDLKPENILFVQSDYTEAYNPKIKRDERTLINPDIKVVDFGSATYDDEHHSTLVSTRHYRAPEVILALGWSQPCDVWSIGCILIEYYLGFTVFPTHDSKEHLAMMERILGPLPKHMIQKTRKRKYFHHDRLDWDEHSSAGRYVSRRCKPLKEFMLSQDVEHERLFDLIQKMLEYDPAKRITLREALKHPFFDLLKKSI
Procedure, shortened: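 33P incorporation counted by microplate scintillation after H3PO4 stop and NaCl washes; IC50 fitted from dose-response curves. Reactions of kinase/substrate, [γ-33P]-ATP and compound ran 60 min at 30 °C, 1% DMSO final, 10 concentrations (10 μM–30 nM).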

[3] = molecular target: T3, DYRK1A (Homo sapiens, UniProt Q13627); assay: Radiometric protein kinase assay (33PanQinase Activity Assay), DYRK1A; settings: for Selectivity Class DYRK1A vs. CLK1: ratio of IC50 on CLK1 over IC50 on DYRK1A; for Selectivity Class DYRK1A vs. DYRK1B: ratio of IC50 on DYRK1B over IC50 on DYRK1A
T3 construct: GST-fusion or His-tag (not specified per kinase); purchased ProQinase GmbH; host or cells: Sf9 insect cells or E. coli (not specified per kinase)
Procedure, shortened: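 Recombinant human kinase, expressed in Sf9 or E. coli, in a radiometric [γ-33P]-ATP assay at 30 °C for 60 min. Compounds tested at 10 concentrations from 10 μM to 30 nM, 1% DMSO final. 33Pi incorporation measured by scintillation counting; IC50 from dose-response curves.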

[4] = molecular target: T4, DYRK3 (Homo sapiens, UniProt O43781); assay: Radiometric protein kinase assay (33PanQinase Activity Assay), DYRK3; settings: read-out: IC50 on DYRK3 (most potent DYRK3 inhibitors)
T4 construct: GST-fusion or His-tag (not specified per kinase); purchased ProQinase GmbH; host or cells: Sf9 insect cells or E. coli (not specified per kinase)
T4 sequence (O43781 1-588): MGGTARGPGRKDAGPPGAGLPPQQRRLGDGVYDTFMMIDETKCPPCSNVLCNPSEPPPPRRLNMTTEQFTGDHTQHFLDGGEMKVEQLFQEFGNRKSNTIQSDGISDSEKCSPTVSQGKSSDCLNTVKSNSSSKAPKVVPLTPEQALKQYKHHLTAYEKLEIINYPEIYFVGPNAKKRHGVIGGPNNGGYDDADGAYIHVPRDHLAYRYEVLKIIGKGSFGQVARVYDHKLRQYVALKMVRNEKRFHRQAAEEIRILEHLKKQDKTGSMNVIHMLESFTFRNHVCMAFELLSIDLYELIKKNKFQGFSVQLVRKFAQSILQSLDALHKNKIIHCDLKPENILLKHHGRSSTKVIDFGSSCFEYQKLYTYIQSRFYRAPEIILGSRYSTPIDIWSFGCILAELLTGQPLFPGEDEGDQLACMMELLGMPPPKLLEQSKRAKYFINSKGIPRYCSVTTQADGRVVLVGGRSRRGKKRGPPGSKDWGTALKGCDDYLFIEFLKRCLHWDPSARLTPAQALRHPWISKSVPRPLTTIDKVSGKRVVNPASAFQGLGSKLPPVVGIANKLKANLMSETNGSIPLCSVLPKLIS
Procedure: as §1, §2, §3, §4, §5, §6, §7

[5] = molecular target: T5, CLK4 (Homo sapiens, UniProt Q9HAZ1); assay: Radiometric protein kinase assay (33PanQinase Activity Assay), CLK4; settings: read-out: IC50 on CLK4 (most potent CLK4 inhibitors)
T5 construct: GST-fusion or His-tag (not specified per kinase); purchased ProQinase GmbH; host or cells: Sf9 insect cells or E. coli (not specified per kinase)
T5 sequence (Q9HAZ1 whole entry, the tested form may be a part): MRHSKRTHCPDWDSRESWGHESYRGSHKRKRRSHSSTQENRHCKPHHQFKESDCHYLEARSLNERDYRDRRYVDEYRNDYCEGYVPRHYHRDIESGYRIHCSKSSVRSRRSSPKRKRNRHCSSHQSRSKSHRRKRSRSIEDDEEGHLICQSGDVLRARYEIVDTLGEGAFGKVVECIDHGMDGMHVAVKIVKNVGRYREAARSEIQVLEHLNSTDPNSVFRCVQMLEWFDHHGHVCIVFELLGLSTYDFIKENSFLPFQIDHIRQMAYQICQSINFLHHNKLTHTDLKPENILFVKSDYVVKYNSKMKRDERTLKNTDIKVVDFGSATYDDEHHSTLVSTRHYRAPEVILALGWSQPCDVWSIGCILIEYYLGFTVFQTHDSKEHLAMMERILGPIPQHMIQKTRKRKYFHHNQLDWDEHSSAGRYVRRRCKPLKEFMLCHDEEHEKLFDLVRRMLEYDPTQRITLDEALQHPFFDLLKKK
Procedure: as §1, §2, §3, §4, §5, §6, §7

[6] = molecular target: T6, CLK2 (Homo sapiens, UniProt P49760); assay: Radiometric protein kinase assay (33PanQinase Activity Assay), CLK2; settings: read-out: IC50 on CLK2 (most potent CLK2 inhibitors)
T6 construct: GST-fusion or His-tag (not specified per kinase); purchased ProQinase GmbH; host or cells: Sf9 insect cells or E. coli (not specified per kinase)
T6 sequence (P49760 whole entry, the tested form may be a part): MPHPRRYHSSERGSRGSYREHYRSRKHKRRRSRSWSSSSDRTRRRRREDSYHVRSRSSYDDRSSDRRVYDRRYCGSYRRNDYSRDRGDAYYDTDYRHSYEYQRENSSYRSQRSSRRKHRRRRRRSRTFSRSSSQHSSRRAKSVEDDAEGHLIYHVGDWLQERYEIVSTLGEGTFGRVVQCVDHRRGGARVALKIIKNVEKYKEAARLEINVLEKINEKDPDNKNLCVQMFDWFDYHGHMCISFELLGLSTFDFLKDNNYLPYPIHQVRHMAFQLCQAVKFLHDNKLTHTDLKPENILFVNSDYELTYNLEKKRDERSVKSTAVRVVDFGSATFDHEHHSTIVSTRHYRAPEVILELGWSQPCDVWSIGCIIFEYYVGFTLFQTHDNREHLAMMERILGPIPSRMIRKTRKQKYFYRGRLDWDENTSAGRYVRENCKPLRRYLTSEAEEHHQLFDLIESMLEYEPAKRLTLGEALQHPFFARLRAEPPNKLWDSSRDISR
Procedure: as §1, §2, §3, §4, §5, §6, §7

[7] = molecular target: T7, DYRK1B (Homo sapiens, UniProt Q9Y463); assay: Radiometric protein kinase assay (33PanQinase Activity Assay), DYRK1B; settings: read-out: IC50 on DYRK1B (most potent DYRK1B inhibitors)
T7 construct: GST-fusion or His-tag (not specified per kinase); purchased ProQinase GmbH; host or cells: Sf9 insect cells or E. coli (not specified per kinase)
T7 sequence (Q9Y463 whole entry, the tested form may be a part): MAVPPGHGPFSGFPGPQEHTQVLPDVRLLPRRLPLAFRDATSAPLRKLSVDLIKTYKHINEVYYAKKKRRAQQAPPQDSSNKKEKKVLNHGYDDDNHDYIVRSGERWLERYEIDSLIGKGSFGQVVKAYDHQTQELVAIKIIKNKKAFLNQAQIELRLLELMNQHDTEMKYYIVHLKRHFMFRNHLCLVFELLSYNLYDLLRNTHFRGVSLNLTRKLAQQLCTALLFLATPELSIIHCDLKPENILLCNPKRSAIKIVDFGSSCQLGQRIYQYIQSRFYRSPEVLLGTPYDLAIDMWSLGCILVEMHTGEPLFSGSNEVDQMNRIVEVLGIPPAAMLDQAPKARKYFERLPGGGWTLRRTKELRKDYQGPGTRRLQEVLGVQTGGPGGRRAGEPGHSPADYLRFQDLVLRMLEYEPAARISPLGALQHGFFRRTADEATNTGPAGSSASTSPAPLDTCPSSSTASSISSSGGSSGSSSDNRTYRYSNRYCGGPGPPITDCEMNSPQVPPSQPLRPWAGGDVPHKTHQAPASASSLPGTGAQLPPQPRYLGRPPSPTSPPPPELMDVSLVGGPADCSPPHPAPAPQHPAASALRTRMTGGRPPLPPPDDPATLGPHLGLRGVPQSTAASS
Procedure: as §1, §2, §3, §4, §5, §6, §7

[8] = molecular target: T8, DYRK2 (Homo sapiens, UniProt Q92630); assay: Radiometric protein kinase assay (33PanQinase Activity Assay), DYRK2; settings: read-out: IC50 on DYRK2 (most potent DYRK2 inhibitors)
T8 construct: GST-fusion or His-tag (not specified per kinase); purchased ProQinase GmbH; host or cells: Sf9 insect cells or E. coli (not specified per kinase)
T8 sequence (Q92630 1-601): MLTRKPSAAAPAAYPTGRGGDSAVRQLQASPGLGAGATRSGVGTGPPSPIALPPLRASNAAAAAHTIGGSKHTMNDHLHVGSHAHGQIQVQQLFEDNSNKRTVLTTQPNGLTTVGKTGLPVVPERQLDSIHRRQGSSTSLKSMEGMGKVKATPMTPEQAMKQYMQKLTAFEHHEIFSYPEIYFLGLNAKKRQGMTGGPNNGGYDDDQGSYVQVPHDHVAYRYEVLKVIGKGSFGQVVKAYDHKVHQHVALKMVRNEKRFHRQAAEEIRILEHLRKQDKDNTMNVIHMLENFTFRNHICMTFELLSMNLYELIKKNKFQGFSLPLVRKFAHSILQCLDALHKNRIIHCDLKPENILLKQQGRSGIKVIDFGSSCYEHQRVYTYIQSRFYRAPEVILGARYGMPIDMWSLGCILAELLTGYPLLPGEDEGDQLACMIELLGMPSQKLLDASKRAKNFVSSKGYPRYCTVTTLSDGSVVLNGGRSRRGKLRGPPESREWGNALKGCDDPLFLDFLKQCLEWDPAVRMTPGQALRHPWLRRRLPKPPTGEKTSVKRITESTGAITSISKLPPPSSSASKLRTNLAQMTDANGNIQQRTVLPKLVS
Procedure: as §1, §2, §3, §4, §5, §6, §7

[9] = molecular target: T9, DYRK4 (Homo sapiens, UniProt Q9NR20); assay: Radiometric protein kinase assay (33PanQinase Activity Assay), DYRK4; settings: read-out: IC50 on DYRK4 (most potent DYRK4 inhibitors)
T9 construct: GST-fusion or His-tag (not specified per kinase); purchased ProQinase GmbH; host or cells: Sf9 insect cells or E. coli (not specified per kinase)
T9 sequence (Q9NR20 1-520): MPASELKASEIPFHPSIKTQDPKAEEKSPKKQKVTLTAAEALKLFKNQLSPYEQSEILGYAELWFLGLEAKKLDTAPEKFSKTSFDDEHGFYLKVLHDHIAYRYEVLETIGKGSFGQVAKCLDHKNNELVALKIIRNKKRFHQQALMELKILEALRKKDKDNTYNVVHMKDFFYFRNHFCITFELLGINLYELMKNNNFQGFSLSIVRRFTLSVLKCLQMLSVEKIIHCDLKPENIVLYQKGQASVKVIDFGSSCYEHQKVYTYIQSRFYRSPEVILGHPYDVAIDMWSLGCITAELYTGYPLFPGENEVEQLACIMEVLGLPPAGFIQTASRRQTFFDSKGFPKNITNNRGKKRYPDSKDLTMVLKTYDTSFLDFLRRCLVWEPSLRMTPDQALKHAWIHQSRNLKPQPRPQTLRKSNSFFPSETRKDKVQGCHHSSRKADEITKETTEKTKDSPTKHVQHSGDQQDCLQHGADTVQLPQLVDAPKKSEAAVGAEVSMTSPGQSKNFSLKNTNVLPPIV
Procedure: as §1, §2
as §3, with “cases. […]” for “cases.”
The reaction cocktails were incubated at 30° C. for 60 minutes. […] Incorporation of ^33Pi was determined with a microplate scintillation counter (Microbeta, Wallac). The IC50 values for all compounds were calculated from the dose response curves […]

[10] = class by IC50 on CLK1, from dose-response curves, read-out: Potency Class CLK1
[11] = class by IC50 on DYRK1A, from dose-response curves, read-out: Potency Class DYRK1A
[12] = IC50 class A to E, read-out: Potency Class CLK1
[13] = IC50 class A to E, read-out: Potency Class DYRK1A
[14] = read-out: IC50 on DYRK1A (most potent DYRK1A inhibitors)

| SMILES | IC50 [1] [µM] | IC50 [2, 10] [µM] | IC50 [3, 11] [µM] | Selectivity Class DYRK1A vs. CLK1 [3] | Selectivity Class DYRK1A vs. DYRK1B [3] | IC50 [4] [µM] | IC50 [5] [µM] | IC50 [2, 12] [µM] | IC50 ([2]; read-out: IC50 on CLK1 (most potent CLK1 inhibitors)) [µM] | IC50 [3, 13] [µM] | IC50 [3, 14] [µM] | IC50 [6] [µM] | IC50 [7] [µM] | IC50 [8] [µM] | IC50 [9] [µM] |
| --- | --- | --- | --- | --- | --- | --- | --- | --- | --- | --- | --- | --- | --- | --- | --- |
| COC[C@@H](CC(C)C)NC1=N/C(=C\c2ccc3ncccc3n2)C(=O)N1 [Compound 81, (4Z)-2-[[(1R)-1-(methoxymethyl)-3-methyl-butyl]amino]-4-(1,5-naphthyridin-2-ylmethylene)-1H-imidazol-5-one] | ≤ 0.5 | > 0.05 | > 0.05 | III (ratio between 0.5 and 2 fold) | III (ratio between 0.5 and 2 fold) |  |  |  |  |  |  |  |  |  |  |
| O=C1NC(NC23CC4CC(CC(C4)C2)C3)=N/C1=C\c1ccc2ncccc2n1 [Compound 70, (4Z)-2-(1-adamantylamino)-4-(1,5-naphthyridin-2-ylmethylene)-1H-imidazol-5-one] | ≤ 0.5 | 0.005 to 0.01 | < 0.005 | II (ratio between 2 and 10 fold) | II (ratio between 2 and 10 fold) | ≤ 0.25 | ≤ 0.01 | 0.005 to 0.01 | ≤ 0.01 | ≤ 0.005 | ≤ 0.01 | ≤ 0.1 | ≤ 0.01 |  |  |
| O=C1NC(NC2CCCCC2)=N/C1=C\c1ccc2ncccc2n1 [Compound 79, (4Z)-2-(cyclohexylamino)-4-(1,5-naphthyridin-2-ylmethylene)-1H-imidazol-5-one] | ≤ 0.5 | 0.025 to 0.05 | 0.025 to 0.05 | III (ratio between 0.5 and 2 fold) | III (ratio between 0.5 and 2 fold) | ≤ 0.25 | ≤ 0.01 |  |  |  |  |  |  |  |  |
| O=C1NC(NC23CC4CC(CC2C4)C3)=N/C1=C\c1ccc2nccnc2c1 [Compound 16, (4Z)-2-(3-noradamantylamino)-4-(quinoxalin-6-ylmethylene)-1H-imidazol-5-one] |  | > 0.05 | 0.005 to 0.01 | I (ratio of IC50 on CLK1 or DYRK1B over IC50 on DYRK1A ≥10 fold (most DYRK1A-selective compounds)) | II (ratio between 2 and 10 fold) |  | ≤ 0.01 | > 0.05 |  | 0.005 to 0.01 | ≤ 0.01 |  |  | ≤ 0.25 | ≤ 0.3 |
